In PubChem BioAssay (NCI):
“And” between values parts separate entries of the source, which are not always exact repeats. Equal entries are not always repeated.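 Assay format: 96-well plates, 48-hour exposure. GI50: concentration for 50% inhibition of growth. The concentration for full growth arrest is given as TGI.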

Experiments:
Experiment in all cases: NCI tumour cell line growth inhibition, 48 h
[1] = test system: UACC-62 melanoma
[2] = test system: SF-268 CNS
[3] = test system: IGROV1 ovarian
[4] = test system: OVCAR-3 ovarian
[5] = test system: NCI-H23 lung
[6] = test system: SW-620 colon
[7] = test system: TK-10 renal
[8] = test system: M14 melanoma
[9] = test system: HT29 colon
[10] = test system: HCT-116 colon

Row | SMILES | GI50 [1] | TGI [1] | GI50 [2] | TGI [2] | GI50 [3] | TGI [3] | GI50 [4] | TGI [4] | GI50 [5] | TGI [5] | GI50 [6] | TGI [6] | GI50 [7] | TGI [7] | GI50 [8] | TGI [8] | TGI [9] | TGI [10] | GI50 [9] | GI50 [10]
1 | c1ccc(N2N=C(c3cccc(Nc4ccncc4)c3)CC2c2ccc3c(c2)OCO3)cc1 (stereo not drawn) | 1.73 µM | 3.24 µM | 1.79 µM | 3.75 µM | 1.7 µM | 3.6 µM | 1.48 µM | 2.92 µM | 1.94 µM | 4.04 µM | 1.18 µM | 2.54 µM | 1.94 µM | 3.99 µM | 1.63 µM | 3.48 µM |  |  |  | 
2 | CCOC1=NC(C(F)(F)F)(C(F)(F)F)N=C(N2CCOCC2)O1 |  | > 100 µM |  | > 100 µM |  | > 100 µM |  | > 100 µM |  | > 100 µM |  | > 100 µM |  | > 100 µM |  | > 100 µM | > 100 µM | > 100 µM |  | 
3 | COc1nc2ccc(COc3ccc(C(=O)NC(CCC(=O)O)C(=O)O)cc3)cc2nc1OC (stereo not drawn) |  | > 10 µM |  | > 10 µM |  | > 10 µM |  | > 10 µM |  | > 10 µM |  | > 10 µM |  | > 10 µM |  | > 10 µM | > 10 µM |  |  | 
4 | COc1cc([C@@H]2c3cc4c(c(O)c3C[C@H]3COC(=O)[C@@H]32)OCO4)cc(OC)c1OC | 0.144 µM |  | 0.501 µM |  | 0.0728 µM |  | 0.089 µM |  |  |  | 0.123 µM |  | 0.505 µM | 37.5 µM and 167 µM and > 100 µM |  | > 122 µM |  |  | 1.18 µM | 0.0589 µM
5 | O=C1C(Cl)N(c2cccc(Cl)c2)C1c1c[nH]c2ccccc12 (stereo not drawn) |  | > 100 µM |  | > 100 µM |  | > 100 µM |  | > 100 µM |  | > 100 µM |  | > 100 µM |  | > 100 µM |  | > 100 µM | > 100 µM | > 100 µM |  | 
6 | Nc1ccccc1Nc1ccccc1C(=O)[O-].Nc1ccccc1Nc1ccccc1C(=O)[O-].[Zn+2] |  | 68.2 µM |  | > 100 µM |  | > 100 µM |  | 61 µM |  | > 100 µM |  | > 100 µM |  | > 100 µM |  | > 100 µM | > 100 µM | > 100 µM |  | 
7 | Cc1nc2c(c(=O)[nH]1)S/C(=C(/C#N)c1nc3ccccc3[nH]1)N2c1ccccc1 |  | > 100 µM |  | > 100 µM |  | > 100 µM |  | > 100 µM |  | > 100 µM |  | > 100 µM |  | > 100 µM |  | > 100 µM | > 100 µM | > 100 µM |  | 
8 | COc1ccc2c(c1O)-c1cc(O)cc3c1[C@@H](C2)N(C)CC3 |  | 136 µM |  | 229 µM |  | 139 µM |  | 84.2 µM |  | 257 µM |  | 145 µM |  |  |  |  | 223 µM | 49.9 µM |  | 
9 | C=C(C)C(=O)O[C@H]1CC2=C[C@@H](C[C@@]3(C)O[C@@H]3[C@H]3OC(=O)C(=C)[C@@H]31)OC2=O |  | 7.61 µM | 0.34 µM | 2.56 µM |  | 9.46 µM |  | 3.74 µM |  | 6.59 µM |  | 1.94 µM |  |  |  |  | 5.93 µM | 4.61 µM |  | 1.4 µM
10 | C(/C=C/c1ccccc1)=Nc1ccc2c(c1)Cc1ccccc1-2 |  | > 100 µM |  | > 100 µM |  | > 100 µM |  | > 100 µM |  | > 100 µM |  | > 100 µM |  | > 100 µM |  | > 100 µM | > 100 µM | > 100 µM |  | 
11 | COc1cc(C2S/C(=C/c3ccccc3)C(=O)N2c2ccc(NC(C)=O)cc2)cc(OC)c1OC (stereo not drawn) |  | > 100 µM |  | 83.3 µM |  |  |  |  |  | 66.8 µM |  |  |  | > 100 µM |  | 56.9 µM | 32 µM | 26.1 µM |  | 
12 | NC(CSCc1ccc(I)cc1)C(=O)O (stereo not drawn) |  | > 100 µM |  | > 100 µM |  | > 100 µM |  | > 100 µM |  | > 100 µM |  | > 100 µM |  | > 100 µM |  | > 100 µM | > 100 µM | > 100 µM |  | 
13 | CC[C@@H]1ON(C)[C@H]2CN(C)C(=O)[C@@H]12 |  |  |  |  |  | > 100 µM |  | > 100 µM |  | > 100 µM |  | > 100 µM |  | > 100 µM |  | > 100 µM | > 100 µM | > 100 µM |  | 
14 | CC(=O)N1N=C(c2ccc3ccccc3c2O)CC1c1cccs1 (stereo not drawn) |  | 25.9 µM |  | > 100 µM |  | > 100 µM |  | > 100 µM |  | > 100 µM |  | > 100 µM |  | > 100 µM |  | 39.1 µM | > 100 µM | > 100 µM |  | 
